Experimental findings from patent US20240175062A1, “LIPOXYGENASE-BASED RECOMBINANT MICROORGANISMS, AND METHOD FORPREPARING HYDROXY FATTY ACIDS AND SECONDARY FATTY ALCOHOLS USING SAME” (EWHA UNIVERSITY - INDUSTRY COLLABORATION FOUNDATION, priority 2021, published 2024) are described below.

Where two headings read alike, the source gives them in different places.

For series [1], the target named is Enhygromyxa salina-derived lipoxygenase (EsLOX) (Enhygromyxa salina, UniProt A0A0C2CV93). The series can be described thus: Enzymatic activity of purified EsLOX for long-chain unsaturated fatty acids (UV-vis spectrophotometer, 234 nm). The class given is biochemical. Conditions: substrate of purified EsLOX, 50 mM EPPS (pH 8.5) buffer. Here is the method:
The culture medium was centrifuged at 13,000×g at 4° C. for 30 minutes and washed twice with phosphate-buffered saline, and added with 50 mM monosodium phosphate (NaH2PO4), 300 mM sodium chloride, 10 mM imidazole, 0.1 mM protease inhibitor (phenylmethylsulfonyl fluoride), and 400 U lysozyme, and then the cell solution was lysed with a sonicator. The cell lysate was centrifuged at 13,000×g at 4° C. for 10 minutes, and then the pellet was removed to separate only a cell supernatant. The cell supernatant was flowed onto a resin packed with an Ni-NTA agarose resin (Qiagen). The protein bound to the resin was washed with a wash buffer (50 mM NaH2PO4, 300 mM NaCl, 20/30 mM imidazole), eluted with an elution buffer (50 mM NaH2PO4, 300 mM NaCl, 250 mM imidazole) to purify Enhygromyxa lipoxygenase. Thereafter, a sample containing the purified Enhygromyxa lipoxygenase was prepared by obtaining a concentrated protein solution using 30 kDa Amicon.
Then, the enzymatic activity of the enzyme sample was measured using a UV-vis spectrophotometer (234 nm). More specifically, as the linoleic acid dioxygenation reaction progressed, the rate of increase in absorbance of a product, conjugated diene, was measured using the spectrophotometer, and the reaction time was measured for each of 10 seconds up to 180 seconds.

Substrate in series [2]: CCCCC/C=C\C/C=C\C/C=C\C/C=C\CCCC(=O)O
Put plainly: cells, lysate or membranes named. Conditions: other: substrate of purified EsLOX, 234 nm, 50 mM EPPS (pH 8.5) buffer.

`CCCCC/C=C\C/C=C\CCCCCCCC(=O)O` [Linoleic acid, linoleic acid]: the Km – broadly, the concentration of substrate that gives half-maximal velocity – in series [1] (read-out: KM) was 90 µM.

Consider `CC/C=C\C/C=C\C/C=C\CCCCCCCC(=O)O` [α-Linolenic acid, α-linolenic acid], for which, in series [1] (read-out: KM), the Km was 120 µM.

Turning to `CCCCC/C=C\C/C=C\C/C=C\CCCCC(=O)O` [γ-Linolenic acid, γ-linolenic acid], the Km in series [1] stood at 130 µM.

B1: Enhygromyxa salina-derived lipoxygenase (EsLOX) (Enhygromyxa salina) (protein)
chain: MSNIPTLPQNDPRPEQRAQQLDKARETYKYADLLPPLAFCEGVPKPDTPSAAWLVTVGKVAAAVALNAVANRRAWKRGDHDEEDASFDVGGTSEEDQNEAGHNSFLARLENFDEEAVSFAPGDEPSVLDEVNERVAAILGAKPNRHVPPAQADDDDNGDDGDGDESFGVLDGNVSKDGPNGRPQSMDDYANLFRRITLPPIASTWKNDSAFAAYRVAGPNASMIQRITELPDNFAVTDAHYKQAMGEGDSLDAAKAEGRLFLADWKLIGETLVNNTYKGAQKTVYAPLALFAVPPGGGSLAPVAIQPGQTPSPTNKIYATQDGNDWLAAKSAVQVAEGNYHELVSHLGLTHLLLEPIVMATYRQLAQHHPIYMLLIPHFEGTLSINNSAATNLIAPGGAVDLIFAGTIESEHQLALAALKRHDFMRSGLPDTIEQRGVGDTSVLTDYPYRDDGLKIWANIERWVTAYVNNYYISEANVTQDTELQAWAAVLSKPFAEGGVSGFGPIDTRAALIFACTKVIFTASAEHSAVNFPQKDLMSYAPAITGAGWTAAPPSQGPLKDFQPPLELAELQAEFLYLLGGVHHTKLGFYNSNSFPYRAWFKDPKITAELLPAFQRDLAASEELIVAANATRTFKYTYMIPSTIPMSINI
For the molecule B1, in series [2], the Km was 80 µM and the kcat/Km (usually the turnover number divided by the Michaelis constant) turned out to be 290000 M⁻¹ s⁻¹.
